pEC50: −log10 of the molar value.
Legend:
LeuT [1] = test: Scintillation proximity assay, time course of 3H-substrate binding to LeuT with or without Na+ pre-incubation; parameters: species or system Aquifex aeolicus; conditions: 3H-Leu 100 nM or 3H-Ala 500 nM, LeuT wild type
Experimental: We bound ^3H-leucine (140 Ci mmol^–1; Moravek) to purified LeuT-variants using the scintillation proximity assay (SPA) as described[17],[18] with 25 ng of purified protein per assay in buffer composed of 50 mM Tris/Mes (pH 8.0), 100 mM NaCl, 1 mM TCEP, 20% glycerol and 1 mM DDM.
Supplementary Figure 5. Pre-incubation of LeuT with Na+ modulates substrate binding.
The time course of binding of (a,c,d) 3H-Leu (100 nM) or (b) 3H-Ala (500 nM) to LeuT wild type (WT; a,b) or LeuT-L400S (c) or -F253A (d) in the absence (open black squares) or presence (filled red circles) of Na+ was measured using the scintillation proximity assay4 (see Methods). Data are shown as mean ± s.e.m. of three technical replicates of a representative experiment performed in parallel (experiments with individual mutants were repeated ≥ 2) and normalized with regard to the steady state level of LeuT-WT. […]

LeuT [2] = test: smFRET imaging of intracellular-labeled LeuT (H7C/R86C), FRET state occupancy and dynamics; assay type: biochemical, Aquifex aeolicus
Experimental: Fluorescence experiments were performed using a prism-based total internal reflection fluorescence (TIRF) microscope as previously described[15],[16]. Microfluidic imaging chambers passivated with a mixture of PEG and biotin-PEG were prepared with 0.8 µM streptavidin (Invitrogen) and 4 nM biotin-tris-(NTA-Ni^2+)[46]. Fluorophore labeled, His-tagged LeuT molecules were reversibly immobilized to the surface-associated Ni^2+ atoms. LD550 (Cy3) fluorophores were excited by the evanescent wave generated by total internal reflection (TIR) of a 532 nm diode-pumped solid state laser (Opus, Laser Quantum). Photons emitted from LD550 (Cy3) and LD650 (Cy5) were collected using a 1.27 NA 60 × PlanApo water-immersion objective (Nikon) and a MultiCam-LS device (Cairn) with a T635lpxr-UF2 dichroic mirror (Chroma) to separate the spectral channels onto two synchronized sCMOS cameras (Flash 4.0 v2, Hamamatsu). Fluorescence data were acquired using custom software implemented in LabView (National Instruments) at 10 frames per second (100 ms time resolution).
Unless otherwise specified, all experiments were performed at 25 °C in buffer containing 50 mM Tris/Mes (pH 7.0), 10% glycerol, 1 mM DDM (Anatrace), 1 mM 2-mercaptoethanol and 200 mM total salt (KCl and NaCl, as specified). An oxygen-scavenging environment consisting of 0.2 units per ml purified glucose oxidase (Sigma G2133), 1.8 units per μl purified catalase (Sigma C40), 0.1% (v/v) glucose was used in all experiments to minimize photobleaching.
(§1) Analysis of single-molecule fluorescence data was performed using custom software written in MATLAB (MathWorks)[22]. […] FRET traces were calculated as EFRET=IA∕(IA+ID) , where IA and ID are the donor and acceptor fluorescence traces, and set to zero whenever the donor was in the dark state. […] SNRSignal (12:1 on average) is the signal magnitude relative to noise within the fluorescence trace prior to photobleaching, which includes all noise sources, including photon statistics and photophysical noise, in addition to background noise. […]

LeuT [3] = test: smFRET imaging of extracellular-labeled LeuT (K239C/H480C), FRET state occupancy and dynamics; assay type: biochemical, Aquifex aeolicus; conditions: no substrate
Experimental: Fluorescence experiments were performed using a prism-based total internal reflection fluorescence (TIRF) microscope as previously described[15],[16]. Microfluidic imaging chambers passivated with a mixture of PEG and biotin-PEG were prepared with 0.8 µM streptavidin (Invitrogen) and 4 nM biotin-tris-(NTA-Ni^2+)[46]. Fluorophore labeled, His-tagged LeuT molecules were reversibly immobilized to the surface-associated Ni^2+ atoms. LD550 (Cy3) fluorophores were excited by the evanescent wave generated by total internal reflection (TIR) of a 532 nm diode-pumped solid state laser (Opus, Laser Quantum). […] Fluorescence data were acquired using custom software implemented in LabView (National Instruments) at 10 frames per second (100 ms time resolution). […]
as §1

CC(C)C[C@H](N)C(=O)O [Leu, leucine] was tested. Which “Effect of pre-incubating LeuT with Na+ on the rate of substrate binding” value (LeuT [1]) did it give?
Its value is “dramatically slowed”.

With [Na+] [Na^+, sodium] as the compound, how does the pEC50 (LeuT [2]; NaCl titration in the presence of 250 μM Ala, read-out: EC50 values of dose-response fits of intracellular low-, intermediate- and high-FRET state occupancies) read?
The pEC50 was 1.70 to 2.10.

What about the pEC50 (LeuT [3]; Na+ titration, Hill coefficient fixed at 2.0, read-out: EC50 of dose-response fit of extracellular FRET state occupancy) of the same compound?
The pEC50 was 1.26.

With C[C@H](N)C(=O)O [Ala, alanine] as the compound, how does the “Effect of pre-incubating LeuT with Na+ on the rate of substrate binding” value (LeuT [1]) read?
Its value is “no such delay in binding”.

[Li+] [Li^+] was tested. Which pEC50 (LeuT [2]; LiCl titration in the presence of 250 μM Ala, Hill coefficient fixed at 2.0, read-out: EC50 of dose-response fit of intracellular high-FRET state occupancy) did it give?
Its pEC50 is 1.00.

And the pEC50 (LeuT [2]; LiCl titration in the presence of 250 μM Ala, Hill coefficient fixed at 2.0, read-out: EC50 of dose-response fit of intracellular intermediate-FRET state occupancy)?
The pEC50 was 1.17.

And the “EC50 for inducing high-FRET state stabilization, fold higher than for Na+” value (LeuT [3]; extracellular side)?
Its value is “seven-fold higher”.
